# Measured values reported in patent US20170027896A1, “METHODS AND COMPOSITIONS FOR THE TREATMENT OF VASCULAR MALFORMATION” (IFOM - FONDAZIONE ISTITUTO FIRC DI ONCOLOGIA MOLECOLARE, priority 2014, published 2017).
# “Also recorded” adds a separate entry of the source. Like-named read-outs stand apart in the source and are kept apart here.
# Columns and labels:
# CCM3-ECKO mice = assay: Bleeding and mortality in drug-treated CCM3-ECKO mice; settings: mouse, in vivo
# Protocol: Sulindac sulfide (Sigma) and sulindac sulfone (Sigma) were both dissolved in DMSO and further diluted 1:50 in corn oil. They were administered intragastrically, daily (30 mg/kg body weight), starting one day after the induction of recombination. The control mice were treated in parallel with vehicle only (corn oil plus 2% DMSO).
# [1] = test system: CCM3-knockout endothelial cell line; assay: rtPCR of b-catenin target gene and progenitor/EndMT markers in CCM3-knockout endothelial cell line; assay type: cell-based, mouse; settings: 48 h; 135 mM sulindac sulfide, 125 mM sulindac sulfone, 200 mM silibinin, 250 mM salinomycin
# Protocol: (§1) In some experiments, endothelial cell lines from the lungs of CCM3-flox/flox mice (8-10 weeks old) were immortalized in culture through retroviral expression of polyoma middle T gene^60. […] These cells were then maintained in culture for up to 25 passages without detectable changes in the effects of this CCM3 ablation.
# (§2) Drugs were added to confluent cells for 48 h before the indicated assays. The final concentrations used were: […] (all from Sigma-Aldrich). As all of these were dissolved in DMSO, control treatment (vehicle) was 0.1% DMSO final concentration, as for drug treatment.
# (§3) RNA extraction was performed with RNeasy kits (74106; […]). The RNA (1 μg) was reverse transcribed with random hexamers (High Capacity cDNA Archive kits; Applied Biosystems). The cDNA was amplified with TaqMan gene expression assays (Applied Biosystems) using a 7900 HT thermocycler (ABI/Prism). For each sample, the expression levels were determined with the comparative threshold cycle (Ct) method, and normalized to the housekeeping genes encoding 18S and glyceraldehyde-3-phosphate dehydrogenase (GAPDH). For amplification, the following probes (Applied Biosystems) that have been validated to recognize the mouse transcripts in rtPCR were used: Axin2, Nkd1, Lef1, ccnd1, cMyc-Klf4, Ly6a, S100a4, Id1, Cdh2, Acta2, CD44. The probes to identify the CCM3 mRNA transcript were custom designed, as: forward, […] (SEQ ID No. 12); reverse, GCTCTGGCCGCTCAATCA (SEQ ID No. 13); reporter sequence, […] (SEQ ID No. 14).
# platelets = settings: cited from earlier work
# [2] = test system: CCM3-knockout endothelial cell line; assay: Immunostaining of CCM3-knockout endothelial cell line; assay type: cell-based, mouse; settings: 48 h
# Protocol: as §1, §2
# Cells cultured in vitro were fixed and stained as described previously^46.
# (§4) The following antibodies were used: anti-Pecam (hamster; MAB1398Z, Millipore); anti-b-galactosidase (chicken; ab9361, Abcam); anti-VE-cadherin (rat monoclonal; 550548, BD Biosciences); anti-VE-cadherin (goat; sc-6458, Santa Cruz); anti-active-b-catenin (mouse monoclonal clone 8E7) dephosphorylated on Ser37 and Thr41, Millipore); anti-total-b-catenin (mouse monoclonal; Cell Signaling); anti-S100a4 (rabbit; 07-2274, Millipore); anti-Klf4 (goat; AF3158, R&D); anti-CD44 (rat; 553131, BD Biosciences); anti-ID1 (rabbit; sc-488, Santa Cruz); anti-aSMA (mouse monoclonal; F3777, Sigma); anti-GFP (rabbit; A-6455, Invitrogen); anti-podocalyxin (goat; AF1556, R&D); anti-phospho-histone H3 (rabbit; ab51776, Millipore); anti-CCM3 (rabbit; Eurogentec); anti-p-Smad1 (rabbit; 9516, Cell Signaling); anti-endomucin (rabbit; sc-65495, Santa Cruz); anti-α-tubulin (mouse monoclonal; T9026, Sigma).
# [3] = test system: CCM1 KO endothelial cells; assay: Endothelial cell-to-cell contacts in CCM1 KO endothelial cells in culture; assay type: cell-based, mouse
# [4] = test system: b-catenin transcription activity in brain endothelial cells of CCM3-ECKO mice; assay: Immunostaining of brain sections of CCM3-ECKO mice (b-gal reporter, progenitor/EndMT markers, VE-cadherin); assay type: in vivo, mouse; settings: CCM3-ECKO pups, dpn 9
# Text: (§5) The CCM3-flox/flox mice were generated at TaconicArtemis (Koeln, Germany). Two P-lox sequences were inserted that flank exons 4 and 5 of the murine CCM3 gene, to produce a loss-of-function mutation after excision by Ore recombinase. These CCM3-flox/flox mice were bred with Cdh5(PAC)-CreERT2 mice (Wang et al, 2010) for tamoxifen-inducible endothelial-cell-specific expression of Ore-recombinase and CCM3 gene recombination. The CCM3-flox/flox-Cdh5(PAC)-CreERT2 mice were further bred with BAT-gal mice (Maretto et al, 2003) to monitor the activation of b-catenin transcription signaling, and with Rosa 26-Enhanced […] Fluorescent Protein (EYFP) (Rosa26EYFP) mice (Srinivas et al, 2001) to monitor the expression of Ore-recombinase through the expression of EYFP. Tamoxifen (Sigma) was dissolved in corn oil and 10% ethanol (at 10 mg/ml), and then diluted 1:5 in corn oil before single intragastric administration to dpn 1-2 pups (35 mg/kg body weight), as described in^14. The control (wild-type) mice included CCM3-flox/flox-Cdh5(PAC)-CreERT2-BAT-gal mice treated with the vehicle used to dissolve the tamoxifen (corn oil plus 2% ethanol), and CCM3^+/+-Cdh5(PAC)-CreERT2-BAT-gal mice treated with tamoxifen.
# (§6) Brains and eyes from mice pups were fixed in 3% paraformaldehyde immediately after dissection, and this fixing was continued overnight at 4° C. The retinas were dissected from the eyes just before staining as the whole mount. Fixed brains were embedded in 4% low-melting-point agarose and sectioned along the sagittal axis ([…]) using a vibratome (1000 Plus, The Vibratome Company, St. Louis, Mo., US).
# Brain sections and retinas were stained as floating samples in 12-well and 96-well plates, respectively. They were blocked overnight at 4° C. in 1% fish-skin gelatin with 0.5% Triton X100 and 5% donkey serum in phosphate-buffered saline (PBS) containing 0.01% thimerosal. The samples were incubated overnight at 4° C. with the primary antibodies diluted in 1% fish-skin gelatin with 0.25% Triton X100 in PBS containing 0.01% thimerosal. Following washing with 0.1% Triton X100 in PBS, the secondary antibodies were added for 4 h at room temperature in 1% fish-skin gelatin with 0.25% Triton X100 in PBS containing 0.01% thimerosal. The incubation with DAPI was in PBS for 4 h, which was followed by several washes in PBS, post-fixating with 3% paraformaldehyde for 5 min at room temperature, and further washes in PBS. The brain sections were mounted in Vectashield with DAPI, and the coverslips fixed with nail varnish; the retinas were mounted in Prolong gold with DAPI.
# as §4
# [5] = test system: cavernoma lesions in the brain of CCM1-ECKO mice; assay: Cavernoma lesions in the brain of CCM1-ECKO mice; assay type: in vivo, mouse
# Text: (§7) CCM1-ECKO and CCM2-ECKO have been obtained from CCM1-flox/flox and CCM2-flox/flox mice as described in details above for CCM3-ECKO mice, see also Maddaluno et al, 2013 and Boulday et al, 2011.
# cyclooxygenase = settings: reported; cited from earlier work
# [6] = test system: vascular lesions in the brain of CCM3-ECKO mice; assay: Assessment of lesion burden in brains of CCM3-ECKO mice; assay type: in vivo, mouse; settings: CCM3-ECKO pups dpn 9; 30 mg/kg intragastrically daily; controls 166.8±22 (sulfide study), 153.5±28 (sulfone study)
# Text: as §5, §6
# For the classification and counting of lesions, entire brains from dpn 9 littermate pups were sectioned and immunostained for Pecam as described above and in the Methods. Sections were then examined under wide-field fluorescence microscopy (10× and 20×). Lesions were classified as described in^63 as mulberry (multiple cavernae, group of more than two contiguous cavernae), single caverna (single dilated vessel with maximal diameter accommodating more than 25 red blood cells), or telangiectases, tortuous small vessels with abnormally dilated lumen). The total numbers of lesions were calculated by summing all of the types of lesions.
# As the sections were […], a correction was applied to the number of mulberry lesions, which can span two sections. Therefore, the number of mulberry lesions was divided by […]. The lesions were counted and classified independently by two observers who were blinded to the treatments.
# The maximal diameter of the mulberry lesions and single cavernae was used for statistical comparison.
# [7] = test system: CCM1 KO endothelial cells; assay: Expression of EndMT markers in CCM1 KO endothelial cells in culture; assay type: cell-based, mouse
# Protocol: as §7, §3
structure (smiles),measurement,setting,value
"CC1=C(CC(=O)O)c2cc(F)ccc2/C1=C\c1ccc(S(C)(=O)=O)cc1 [sulindac sulfone, (Z)-5-Fluoro-2-methyl-1-[4-(methylsulfonyl)benzylidene]indene-3-acetic acid]",bleeding from vascular lesions or mortality versus vehicle-treated mice,CCM3-ECKO mice,did not observe either increased bleeding from vascular lesions or mortality
same,"inhibition of transcription of Axin2, Klf4 and S100a4 (rtPCR)",[1],greatest inhibition; also recorded: most effective
same,anti-platelet activity,platelets,lacks anti-platelet activity
same,nuclear accumulation of active b-catenin / distribution to adherens junctions,[2],inhibited; also recorded: reduced
same,"overexpression of progenitor/EndMT marker proteins (Klf4, S100a4, Id1, CD44)",[2],strongly reduced; also recorded: inhibited
same,organization of endothelial cell-to-cell contacts,[3],induces re-organization
same,VE-cadherin localization at endothelial cell-cell junctions in brain vessels,[4],restored its localization to cell-cell junctions
same,"expression of b-catenin target genes / progenitor and EndMT markers (Klf4, S100a4, Id1) in brain endothelium",[4]; immunostaining,reduced this nuclear reactivity; also recorded: inhibited
same,formation of cavernoma lesions in the brain,[5],inhibits
same,anti-cyclooxygenase activity,cyclooxygenase,devoid of anti-cyclooxygenase activity
same,mean number (±SD) of vascular lesions per brain,[6],68.6±10
same,expression of EndMT markers,[7],inhibits
same,expression of EndMT markers,[7]; listed as exisulind,inhibition
